The test system of data set [1] is circulatory shock. Conditions: S. Cuzzocrea et al., Br. J. Pharmacol. 1997; cited from earlier work.
Data set [2] addresses T1, PARP enzyme present in the cells (human cell line C4I) (Homo sapiens, UniProt P09874).
T1 construct: endogenous in cells; host or cells: human cell line C4I
Put plainly: Test of PARP inhibitors in a cellular assay (H2O2-induced PAR formation, immunofluorescence). Type of data set: cell-based. Particulars: 1 mM hydrogen peroxide, FITC signal standardized to DAPI. The method, then:
To test the action of PARP inhibitors, eukaryotic cell lines are treated with chemicals such that the DNA of the cell line is damaged and as a result the PARP enzyme present in the cells is activated. Due to the activation of the enzyme, chains of poly-ADP-ribose (PAR) are formed on proteins. These chains are bound by a specific antibody. This is in turn bound by a second antibody which is provided with a fluorescent label. The fluorescence is measured using a fluorescence scanner and behaves proportionately to the activity of the enzyme PARP. PARP inhibitors can be recognized by a weakening of the fluorescence signal. In order to prevent adulterations of the results by different cell counts, the DNA of the cells is labeled with a further dye and its fluorescence is likewise determined in the fluorescence scanner.
400,000 cells of the human cell line C4I are incubated at 37° C., 5% CO2 with 10% fetal bovine serum in RPMI medium in cell culture plates having 24 cavities until a thick cell lawn is obtained. The cells are washed with DMEM and the PARP inhibitors to be tested are added in various concentrations in DMEM. After incubation for 20 min at 37° C., a concentration of 1 mM is established using hydrogen peroxide and the mixture is incubated at 37° C. for a further 10 min. For the control, cells in some cavities are not treated with hydrogen peroxide (no PARP activation) or receive no inhibitor (maximal PARP activation). The cells are washed once with PBS and fixed at −20° C. for 10 min by addition of methanol/acetone mixture which is precooled to −20° C. (7 parts methanol, 3 parts acetone). The cells are then dried, rehydrated at room temperature for 10 min by addition of PBS, and nonspecific binding sites are blocked for 30 min at room temperature in PBS with 0.05% Tween 20 and 5% dried milk powder. […] The FITC and DAPI fluorescence is measured at several sites in the cavities with the aid of a fluorescence scanner. […] The IC50 values are calculated by semilogarithmic plotting of the standardized values of the various inhibitor concentrations.

The nature of data set [3]: Determination of the water solubility. The format is physicochemical. Particulars: pH 5 to 6 adjusted with sodium acetate solution, DMSO ≦1% if not a water-soluble salt. The method, then: A compound to be measured is dissolved directly in a specified volume of water and the resulting solution is adjusted to pH 5 to 6 using a sodium acetate solution so that the concentration of the active compound to be tested is achieved. If the measured substance is not present as a water-soluble salt, this was dissolved in as little dimethyl sulfoxide as possible and then diluted with water (final concentration of dimethyl sulfoxide ≦1%), after which the pH was additionally adjusted here too.

The source of these data is patent US6509365B1, “2-phenylbenzimidazoles and 2-phenylindoles, and production and use thereof” (BASF Aktiengesellschaft, priority 1998, dated 2003).

T1 sequence (P09874 whole entry): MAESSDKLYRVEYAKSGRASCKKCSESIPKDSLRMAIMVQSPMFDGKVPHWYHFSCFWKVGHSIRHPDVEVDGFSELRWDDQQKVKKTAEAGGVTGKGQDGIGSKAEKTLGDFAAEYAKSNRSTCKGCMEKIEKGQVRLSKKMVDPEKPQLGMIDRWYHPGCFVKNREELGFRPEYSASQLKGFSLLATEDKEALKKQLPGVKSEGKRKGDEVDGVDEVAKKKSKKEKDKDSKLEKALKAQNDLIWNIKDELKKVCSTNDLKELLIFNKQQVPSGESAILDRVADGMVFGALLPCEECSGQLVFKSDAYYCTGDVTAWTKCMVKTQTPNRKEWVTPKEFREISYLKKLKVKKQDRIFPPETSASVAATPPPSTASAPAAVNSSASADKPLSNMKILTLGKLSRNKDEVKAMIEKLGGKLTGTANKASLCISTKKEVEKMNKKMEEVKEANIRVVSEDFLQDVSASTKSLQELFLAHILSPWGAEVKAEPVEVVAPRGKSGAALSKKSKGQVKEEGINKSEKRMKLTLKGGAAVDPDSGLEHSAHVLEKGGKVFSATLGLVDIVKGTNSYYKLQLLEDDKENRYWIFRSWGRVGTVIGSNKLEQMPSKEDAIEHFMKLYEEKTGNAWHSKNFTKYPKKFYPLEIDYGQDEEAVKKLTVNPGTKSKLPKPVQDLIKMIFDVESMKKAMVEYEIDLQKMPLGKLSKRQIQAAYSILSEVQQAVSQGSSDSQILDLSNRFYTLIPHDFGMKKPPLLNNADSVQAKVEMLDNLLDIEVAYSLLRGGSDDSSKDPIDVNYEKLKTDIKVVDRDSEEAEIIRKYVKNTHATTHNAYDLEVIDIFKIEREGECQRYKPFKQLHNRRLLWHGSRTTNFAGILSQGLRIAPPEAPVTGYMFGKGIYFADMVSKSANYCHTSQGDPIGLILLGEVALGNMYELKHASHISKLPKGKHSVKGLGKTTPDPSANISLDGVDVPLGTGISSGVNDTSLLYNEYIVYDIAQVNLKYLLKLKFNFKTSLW

With `NC(=O)c1cccc(N)c1` [3-aminobenzamide], the “protective effects in a model for circulatory shock” value in data set [1] is on record as “protective effects”. Usually IC50 stands for the point on the concentration scale where inhibition reaches its midpoint. A high value points to lower potency. For `CCN(CC)CCN(C)c1ccc(-c2nc3c(C(N)=O)cccc3[nH]2)cc1` [Example 1], it took 0.115 µM to reach half-maximal inhibition in data set [2] (IC50). Turning to `CN(C)CCN(C)c1ccc(-c2nc3c(C(N)=O)cccc3[nH]2)cc1` [Example 2], in data set [2], the IC50 is 0.119 µM. The compound `CN(C)CCc1cc(-c2nc3c(C(N)=O)cccc3[nH]2)ccc1[N+](=O)[O-]` [Example 3] yielded an IC50 in data set [2] of 0.118 µM. This IC50 and that of the compound before are within 1.5-fold of each other. Turning to `COc1ccc(-c2nc3cccc(C(N)=O)c3[nH]2)cc1` [NU 1076], the solubility in data set [3] is recorded as < 0.01%.
